Source: patent EP1263420B1 (priority 2000, dated 2001)
Several values for one entry are separate records, joined by “and”; a condition that tells them apart may be missing. Equal values may be shown once.

Assays:
TGase II [1] = assay: TGase II activity in cultured MCF-7 cells; assay type: cell-based, human
Experimental: MCF-7 cells were seeded at a density of 1.5 x 10^5 cells/ml medium (500ml DMEM + 56.2ml FBS + 5.6m1 AB/AM) in 6cm diameter dishes for 24 hours and treated with either DMSO, RA, or 13-cis RA at 10^-6 M and grown to confluence (about 72 hours). Cells were harvested and Transglutaminase II activity was measured as described below. Nebulizer solution, inhalation procedures, details of animal housing are described below.
Cultured cells were placed in 100 µl scraping buffer [A: 2800µl (400µl 0.5M Na-Phosphate, 500µl 0.01M EDTA, 100µl 1M DTT , 9ml PBS total 10ml) + B:700µl (10µl 20mg/ml PMSF 790µl PBS total 800µl)] for each dish. Cells were broken by a sonicator and kept in ice until used. TGase II assay was conducted as described below and previously {8217}.
(§1) Enzyme assay mixtures were prepared by adding 80µl of SUBSTRATE mixture (322.8µl H2O, 120µl 0.5M NaBorate, 60µl 0.01M EDTA, 60µl 0.1M CaCl2, 6µl 1M DTT, 240µl dimethyl casein, 30µl Triton X-100, 1.2µl [^3H]-Putrescine, 120µl Putrescine) to 20µl sample, 20µl scraping buffer for blank control , 20 µl (18µl scraping buffer + 2µl TGase II) for positive control. Samples were mixed in 15ml tubes, the tubes were shaken before putting them into a 28°C water bath for 30 minutes. Reactions were slowed down in an ice bath. 80µl of the incubation mixture was adsorbed onto paper disks. These were immediately dropped into cold 10% TCA (0.1% Putrescine) and washed with agitation for 7 minutes, followed by 2 additional washes with 5% TCA (0.05% putrescine) for 5~7 minutes, and once more with cold (-20°C) 95% ethanol for 5 minutes. Paper disks were dried and placed into 5ml Aquasol, and counted in a Liquid Scintillation Counter. Protein concentration determination was conducted by the Bradford method.

TGase II [2] = assay: TGase II assay of rat liver tissue after inhaled 13-cis RA (experiment B); assay type: in vivo; conditions: for TGase II assay / TGase II assay DPM/µg protein: rat liver
Experimental: Male rats (n=23) (Sprague-Dawley from Charles River) were divided into six experimental groups and were given varying amounts of 13-cis RA through an inhalant apparatus once daily for different times each day for 14 days. The experimental groups were as follows (Table 1) :1.Vehicle control : rats (3) inhaled vehicle for 240 minutes; 2. Low dose 13-cis RA: rats (4) inhaled a solution containing 13-cis RA at a concentration of 62.2µg/liter (inhaled dose 115.0µg/kg body weight) in 5 minutes; 3. Low-Middle dose 13-cis RA : rats (4) inhaled a solution containing 13-cis RA at a concentration of 62.2µg/liter (inhaled dose 334.4µg/kg body weight) in 15 minutes; 4.Middle dose 13-cis RA: rats (4) inhaled a solution containing 13-cis RA at a concentration of 62.2µg/liter (inhaled dose 1012.3µg/kg body weight) in 45 minutes; 5. Middle-High dose 13-cis RA : rats (4) inhaled a solution containing 13-cis RA at a concentration of 62.2µg/liter (inhaled dose 2843.4µg/kg body weight) in 120 minutes; 6. High dose 13-cis RA : rats (4) inhaled a solution containing 13-cis RA at a concentration of 62.2µg/liter (inhaled dose 5935.6µg/kg body weight) in 240 minutes.
For liver tissue, a piece of approximately 100-400mg was used. Tissue was diced in small pieces and homogenized in approximately 2 volumes of scraping buffer for 2-3 minutes at 4°C. Samples were centrifuged at 14,000xg for 30 minutes at 4°C. The supernatant was removed and kept in ice until used.
as §1

[3] = High: 240 minutes daily 14 Days, 1872µg/kg total deposited dose
[4] = Low-Middle: 15 minutes daily 14 Days, 117µg/kg total deposited dose
[5] = Middle-High: 120 minutes daily 14 Days, 936µg/kg total deposited dose
[6] = Middle: 45 minutes daily 14 Days, 351µg/kg total deposited dose

`CC1=C(/C=C/C(C)=C/C=C/C(C)=C\C(=O)O)C(C)(C)CCC1` [13-cis RA, 13-cis-Retinoic Acid] was tested, and the fold induction at 1 µM (TGase II [1]; Homo sapiens, MCF7, 72 h, read-out: stimulating TGase II activity) was 6.1, the “TGase II Activity” value (TGase II [1]; MCF-7 cells, 10^-6 M, 72 hours, DMSO control 0.183) was 1.118 +/- 0.016 picomoles/µg protein/30 minutes and the “effect on liver TGase II activity” value (TGase II [2]; inhaled, up to 5.93mg/kg of inhaled dose) was “no significant effect”. For the same compound, the “TGase II assay” value (TGase II [2]; [3]) was 0.271 +/- 0.015 picomoles/µg protein/30 min and 0.271 ± 0.015 picomoles/µg protein/30 min, the “TGase II assay DPM/µg protein” value (TGase II [2]; [3]) was 19719 DPM/µg protein and the “TGase II assay” value (TGase II [2]; [4]) was 0.273 +/- 0.018 picomoles/µg protein/30 min and 0.273 ± 0.018 picomoles/µg protein/30 min. For the same compound, the “TGase II assay DPM/µg protein” value (TGase II [2]; [4]) was 21448 DPM/µg protein, the “TGase II assay DPM/µg protein” value (TGase II [2]; Low: 5 minutes daily 14 Days, 39µg/kg total deposited dose) was 22705 DPM/µg protein and the “TGase II assay” value (TGase II [2]; Low: 5 minutes daily 14 Days, 39µg/kg total deposited dose, vehicle 0.260) was 0.289 +/- 0.007 picomoles/µg protein/30 min and 0.289 ± 0.007 picomoles/µg protein/30 min. The “TGase II assay” value (TGase II [2]; [5]) was 0.269 +/- 0.015 picomoles/µg protein/30 min and 0.269 ± 0.015 picomoles/µg protein/30 min, the “TGase II assay DPM/µg protein” value (TGase II [2]; [5]) was 20348 DPM/µg protein and the “TGase II assay” value (TGase II [2]; [6]) was 0.313 +/- 0.025 picomoles/µg protein/30 min and 0.313 ± 0.025 picomoles/µg protein/30 min. For the same compound, the “TGase II assay DPM/µg protein” value (TGase II [2]; [6]) was 24590 DPM/µg protein.
